The source of these data is the supplement of paper PMC10307832.

Holding throughout (assay): relative viability (nuclei count vs DMSO), 5 days (fraction); higher = more cells survive
Compound in the experiment “CUDC-101 + Vorinostat”: C#Cc1cccc(Nc2ncnc3cc(OC)c(OCCCCCCC(=O)NO)cc23)c1 [CUDC-101] + O=C(CCCCCCC(=O)Nc1ccccc1)NO [Vorinostat] (partner 1 µM)
A digest of the protocol: (§1)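 Nuclei were stained with Hoechst during a one-step fixation (final 0.05% Triton X-100, 1% formaldehyde, 1 ug/ml Hoechst) carried out 5 days after dosing, then counted on 4× images. The cells, lung cancer lines in 1536-well plates, had been dosed by pin tool the day after seeding with one drug alone or a fixed anchor-drug dose plus five library-drug doses (not always all listed) in √10 steps. Relative viability is the nuclei count in treated wells divided by that in vehicle wells, and each value is the median of duplicate plates.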

Compound in the experiment “NVP-TAE684 + Linsitinib”: COc1cc(N2CCC(N3CCN(C)CC3)CC2)ccc1Nc1ncc(Cl)c(Nc2ccccc2S(=O)(=O)C(C)C)n1 [NVP-TAE684] + C[C@]1(O)C[C@@H](c2nc(-c3ccc4ccc(-c5ccccc5)nc4c3)c3c(N)nccn32)C1 [Linsitinib] (partner 1 µM)
A digest of the protocol:
as §1

Compound in the experiment “Vandetanib + Tozasertib”: COc1cc2/c(=N/c3ccc(Br)cc3F)nc[nH]c2cc1OCC1CCN(C)CC1 [Vandetanib] + Cc1cc(Nc2cc(N3CCN(C)CC3)nc(Sc3ccc(NC(=O)C4CC4)cc3)n2)n[nH]1 [Tozasertib] (partner 0.1 µM)
In a few lines:
as §1

Compound in the experiment “CUDC-101 + Olaparib”: C#Cc1cccc(Nc2ncnc3cc(OC)c(OCCCCCCC(=O)NO)cc23)c1 [CUDC-101] + O=C(c1cc(Cc2n[nH]c(=O)c3ccccc23)ccc1F)N1CCN(C(=O)C2CC2)CC1 [Olaparib] (partner 8 µM)
In a few lines:
as §1

NCI-H1734: the relative viability with CUDC-101 + Vorinostat (first compound 0.01 µM) turned out to be 0.882; with CUDC-101 + Vorinostat (first compound 0.03162 µM), 0.76; with CUDC-101 + Vorinostat (first compound 0.1 µM) it was 0.832; with CUDC-101 + Vorinostat (first compound 0.3162 µM), 0.595; with CUDC-101 + Vorinostat (first compound 1 µM), 0.369; with NVP-TAE684 + Linsitinib (first compound 0.2 µM), 0.849. Besides, the relative viability with NVP-TAE684 + Linsitinib (first compound 0.6325 µM) was found to be 0.92; with NVP-TAE684 + Linsitinib (first compound 2 µM) it was 0.818; with Vandetanib + Tozasertib (first compound 0.02 µM) it was 0.24; in the experiment with Vandetanib + Tozasertib (first compound 0.06325 µM) it was 0.289; with Vandetanib + Tozasertib (first compound 0.2 µM) it was 0.14; in the experiment with Vandetanib + Tozasertib (first compound 0.6325 µM), 0.216. Also, the relative viability in the experiment with Vandetanib + Tozasertib (first compound 2 µM) was determined as 0.261; with CUDC-101 + Olaparib (first compound 0.01 µM), 0.663; with CUDC-101 + Olaparib (first compound 0.03162 µM), 0.606; in the experiment with CUDC-101 + Olaparib (first compound 0.1 µM), 0.59; with CUDC-101 + Olaparib (first compound 0.3162 µM) it was 0.697; with CUDC-101 + Olaparib (first compound 1 µM), 0.499.

As for NCI-H1755, the relative viability stood at 0.759 with CUDC-101 + Vorinostat (first compound 0.01 µM); 0.741 in the experiment with CUDC-101 + Vorinostat (first compound 0.03162 µM); 0.73 in the experiment with CUDC-101 + Vorinostat (first compound 0.1 µM); 0.67 with CUDC-101 + Vorinostat (first compound 0.3162 µM); 0.637 in the experiment with CUDC-101 + Vorinostat (first compound 1 µM); 1.05 in the experiment with NVP-TAE684 + Linsitinib (first compound 0.2 µM). Also, the relative viability in the experiment with NVP-TAE684 + Linsitinib (first compound 0.6325 µM) was 1.05; with Vandetanib + Tozasertib (first compound 0.02 µM) it was 0.581; with Vandetanib + Tozasertib (first compound 0.06325 µM), 0.568; with Vandetanib + Tozasertib (first compound 0.2 µM) it was 0.648; with Vandetanib + Tozasertib (first compound 0.6325 µM), 0.536; with Vandetanib + Tozasertib (first compound 2 µM), 0.567. Besides, the relative viability was determined as 0.873 with CUDC-101 + Olaparib (first compound 0.01 µM); 0.933 with CUDC-101 + Olaparib (first compound 0.03162 µM); 0.904 with CUDC-101 + Olaparib (first compound 0.1 µM); 0.853 with CUDC-101 + Olaparib (first compound 0.3162 µM); 0.753 with CUDC-101 + Olaparib (first compound 1 µM).

With NCI-H1793, the relative viability with CUDC-101 + Vorinostat (first compound 0.01 µM) is 0.858; with CUDC-101 + Vorinostat (first compound 0.03162 µM) it was 0.774; with CUDC-101 + Vorinostat (first compound 0.1 µM) it was 0.558; with CUDC-101 + Vorinostat (first compound 0.3162 µM), 0.675; in the experiment with CUDC-101 + Vorinostat (first compound 1 µM), 0.331; in the experiment with NVP-TAE684 + Linsitinib (first compound 0.2 µM), 0.734. The relative viability with NVP-TAE684 + Linsitinib (first compound 0.6325 µM) was 0.857; with NVP-TAE684 + Linsitinib (first compound 2 µM), 0.9; with Vandetanib + Tozasertib (first compound 0.02 µM), 0.335; with Vandetanib + Tozasertib (first compound 0.06325 µM), 0.351; in the experiment with Vandetanib + Tozasertib (first compound 0.2 µM), 0.195; with Vandetanib + Tozasertib (first compound 0.6325 µM) it was 0.341. Also, the relative viability in the experiment with Vandetanib + Tozasertib (first compound 2 µM) worked out at 0.242; in the experiment with CUDC-101 + Olaparib (first compound 0.01 µM), 0.857; with CUDC-101 + Olaparib (first compound 0.03162 µM) it was 0.753; with CUDC-101 + Olaparib (first compound 0.1 µM) it was 0.888; with CUDC-101 + Olaparib (first compound 0.3162 µM), 0.944; with CUDC-101 + Olaparib (first compound 1 µM) it was 0.549.

With NCI-H1915, the relative viability with CUDC-101 + Vorinostat (first compound 0.01 µM) amounted to 0.527; in the experiment with CUDC-101 + Vorinostat (first compound 0.03162 µM), 0.511; with CUDC-101 + Vorinostat (first compound 0.1 µM), 0.481; in the experiment with CUDC-101 + Vorinostat (first compound 0.3162 µM), 0.358; with CUDC-101 + Vorinostat (first compound 1 µM), 0.374; with NVP-TAE684 + Linsitinib (first compound 0.2 µM), 1.16. Besides, the relative viability in the experiment with NVP-TAE684 + Linsitinib (first compound 0.6325 µM) stood at 1.18; with NVP-TAE684 + Linsitinib (first compound 2 µM), 1.01; with Vandetanib + Tozasertib (first compound 0.02 µM) it was 0.424; in the experiment with Vandetanib + Tozasertib (first compound 0.06325 µM) it was 0.422; with Vandetanib + Tozasertib (first compound 0.2 µM), 0.438; with Vandetanib + Tozasertib (first compound 0.6325 µM), 0.419. In addition, the relative viability in the experiment with Vandetanib + Tozasertib (first compound 2 µM) turned out to be 0.412; with CUDC-101 + Olaparib (first compound 0.01 µM), 0.25; with CUDC-101 + Olaparib (first compound 0.03162 µM), 0.232; with CUDC-101 + Olaparib (first compound 0.1 µM), 0.225; in the experiment with CUDC-101 + Olaparib (first compound 0.3162 µM), 0.229; in the experiment with CUDC-101 + Olaparib (first compound 1 µM), 0.164.

Take NCI-H1944: the relative viability with CUDC-101 + Vorinostat (first compound 0.01 µM) is 0.522; in the experiment with CUDC-101 + Vorinostat (first compound 0.03162 µM) it was 0.58; with CUDC-101 + Vorinostat (first compound 0.1 µM), 0.529; in the experiment with CUDC-101 + Vorinostat (first compound 0.3162 µM), 0.533; with CUDC-101 + Vorinostat (first compound 1 µM) it was 0.369; with NVP-TAE684 + Linsitinib (first compound 0.2 µM), 1.16. In addition, the relative viability with NVP-TAE684 + Linsitinib (first compound 0.6325 µM) is 1.17; in the experiment with NVP-TAE684 + Linsitinib (first compound 2 µM), 1.3; with Vandetanib + Tozasertib (first compound 0.02 µM), 0.262; in the experiment with Vandetanib + Tozasertib (first compound 0.06325 µM), 0.265; with Vandetanib + Tozasertib (first compound 0.2 µM) it was 0.235; with Vandetanib + Tozasertib (first compound 0.6325 µM), 0.239. Moreover, the relative viability in the experiment with Vandetanib + Tozasertib (first compound 2 µM) worked out at 0.243; with CUDC-101 + Olaparib (first compound 0.01 µM), 0.4; with CUDC-101 + Olaparib (first compound 0.03162 µM), 0.349; in the experiment with CUDC-101 + Olaparib (first compound 0.1 µM), 0.353; with CUDC-101 + Olaparib (first compound 0.3162 µM), 0.333; in the experiment with CUDC-101 + Olaparib (first compound 1 µM), 0.235.
